The record followed here is ChEMBL document CHEMBL4610048, “Design, synthesis, and evaluation of novel 4-amino-2-(4-benzylpiperazin-1-yl)methylbenzonitrile compounds as Zika inhibitors” (Bioorg Med Chem Lett, 2020).

A short description of data set [1]: Cytotoxicity against African green monkey Vero E6 cells assessed as reduction in cell viability. Type of data set: cell-based, Vero C1008. The note with it: chlorocebus sabaeus.
A short description of data set [2]: Selectivity index, ratio of CC50 for African green monkey Vero E6 cells to EC50 for Zika virus infected in African green monkey Vero E6 cells assessed as inhibition of viral induced cytopathic effect. Type of data set: toxicity, Vero C1008. To be noted: read-out: Ratio CC50/EC50. On the technique in general: Protection from cytopathic effect is a common read-out in antiviral testing.

In data set [3] the test system is Zika virus. Put plainly: Antiviral activity against Zika virus infected in African green monkey Vero E6 cells assessed as reduction in viral induced cytopathic effect. Type of data set: functional, organism-based. The note with it: Vero C1008.
For data set [4], the system named is Zika virus. Put plainly: Antiviral activity against Zika virus infected in African green monkey Vero E6 cells assessed as inhibition of viral induced cytopathic effect at 40 uM relative to control. Type of data set: functional. The note with it: Vero C1008.
Data set [5] in a line: Cytotoxicity against African green monkey Vero E6 cells assessed as cell viability at 40 uM relative to control. The data set is classed as cell-based, Vero C1008. The note with it: chlorocebus sabaeus, read-out: Activity.
The nature of data set [6]: Cytotoxicity against African green monkey Vero E6 cells assessed as cell viability at 10 uM relative to control. To be noted: chlorocebus sabaeus, read-out: Activity. Type of data set: cell-based, Vero C1008.
The test system of data set [7] is Zika virus. Briefly: Antiviral activity against Zika virus infected in African green monkey Vero E6 cells assessed as inhibition of viral induced cytopathic effect at 10 uM relative to control. Type of data set: functional. The note with it: Vero C1008.
Data set [8] relates to Zika virus. Put plainly: Antiviral activity against Zika virus infected in African green monkey Vero E6 cells assessed as suppression of viral RNA synthesis at 1.25 to 10 uM incubated for 96 hrs by qRT-PCR analysis. To be noted: Vero C1008. The data set is classed as functional, organism-based. (In qPCR the cycle at which signal appears reflects the starting amount.)
The test system of data set [9] is Zika virus. Put plainly: Antiviral activity against Zika virus infected in African green monkey Vero E6 cells assessed as suppression of viral envelope protein expression at 1.25 to 10 uM incubated for 96 hrs by Western blot analysis. The data set is classed as functional, organism-based. The note with it: Vero C1008. In general terms: Immunoblotting shows a protein as a band on a membrane.

The subject of data set [10] is Zika virus. Put plainly: Antiviral activity against Zika virus infected in African green monkey Vero E6 cells assessed as suppression of viral envelope protein expression incubated for 96 hrs by Western blot analysis. Type of data set: functional, organism-based. The note with it: Vero C1008.
Data set [11] deals with Zika virus. Briefly: Antiviral activity against Zika virus infected in African green monkey Vero E6 cells assessed as suppression of viral RNA synthesis incubated for 96 hrs by qRT-PCR analysis. The data set is classed as functional, organism-based. The note with it: Vero C1008.
In data set [12] the test system is Zika virus. Put plainly: Antiviral activity against Zika virus infected in African green monkey Vero E6 cells assessed as suppression of viral envelope protein expression at 10 uM incubated for 96 hrs by Western blot analysis. The data set is classed as functional, organism-based. The note with it: Vero C1008.
The test system of data set [13] is Zika virus. Put plainly: Antiviral activity against Zika virus infected in African green monkey Vero E6 cells assessed as suppression of viral RNA synthesis at 10 uM incubated for 96 hrs by qRT-PCR analysis. The note with it: Vero C1008. Type of data set: functional, organism-based.

Calls of active or inactive are those of the source. No cut-off for these calls is given here.

Regarding `NC(=O)c1ncn([C@@H]2O[C@H](CO)[C@@H](O)[C@H]2O)n1` [RIBAVIRIN], the CC50 in data set [1] is > 100 µM. Besides, the selectivity ratio in data set [2] was > 3. In addition, the concentration giving a half-maximal response (EC50) in data set [3] was determined as 33 µM. In addition, the inhibition at 40 µM in data set [4] is 37%. The viability at 40 µM in data set [5] amounted to 94.5%.

Turning to `N#Cc1ccc(NCCN2CCOCC2)cc1CN1CCN(Cc2ccc(C(F)(F)F)cc2)CC1`, the viability at 10 µM in data set [6] amounted to 79.2%. Besides, the inhibition at 10 µM in data set [7] was determined as 47.5%.

`N#Cc1ccc(CN2CCN(Cc3ccc(C#N)cc3)CC2)cc1`: in data set [6], the viability at 10 µM amounted to 89.6%. In addition, in data set [7], the inhibition at 10 µM is 12.6%.

On to `CN1CCCN(c2ccc(C#N)c(CN3CCN(Cc4ccccc4C#N)CC3)c2)CC1`, for which the viability at 10 µM in [6] turned out to be 87.1%. In addition, the inhibition at 10 µM in [7] came to 36.2%.

As for `N#Cc1ccc(NCCn2cccc2)cc1CN1CCN(Cc2ccc(C(F)(F)F)cc2)CC1`, the viability at 10 µM in data set [6] turned out to be 75.7%. The inhibition at 10 µM in data set [7] was determined as 56.2%.

For `COc1ccc(CN2CCN(Cc3cc(N4CCCN(C)CC4)ccc3C#N)CC2)cc1`, the viability at 10 µM in data set [6] was determined as 65.8%. Also, the inhibition at 10 µM in data set [7] is 59.2%.

With `CN1CCCN(c2ccc(C#N)c(CN3CCN(Cc4ccc(C#N)cc4)CC3)c2)CC1`, the CC50 in data set [1] is > 100 µM. Besides, in [6], the viability at 10 µM is 76%. Further, the selectivity ratio in [2] is > 22. Besides, the inhibition entry in data set [8] and in data set [9] was “inactive” each time. In addition, the EC50 in data set [3] amounted to 4.4 µM. In addition, the inhibition at 10 µM in [7] is 77.4%.

Consider `CC(c1ccccc1)N1CCN(Cc2ccccc2C#N)CC1` (stereo not given), for which the viability at 10 µM in [6] was determined as 77.5%. The inhibition at 10 µM in data set [7] is 35.8%.

For the compound `CN(C)c1ccc(C#N)c(CN2CCN(Cc3ccc(C(F)(F)F)cc3)CC2)c1`, the viability at 10 µM in data set [6] came out at 90.5%. The inhibition at 10 µM in [7] was determined as 19.2%.

`CN(C)CCN(C)c1ccc(C#N)c(CN2CCN(Cc3cccc(Cl)c3)CC2)c1`: the viability at 10 µM in data set [6] amounted to 73.6%. In data set [7], the inhibition at 10 µM was found to be 54.8%.

For `CN(C)CCN(C)c1ccc(C#N)c(CN2CCN(Cc3ccc(F)cc3)CC2)c1`, in data set [6], the viability at 10 µM was 85.1%. The inhibition at 10 µM in data set [7] worked out at 60.7%.

Turning to `CN(C)CCN(C)c1ccc(C#N)c(CN2CCN(Cc3ccc(C#N)cc3)CC2)c1`, the CC50 in [1] was 66 µM. Besides, the viability at 10 µM in [6] worked out at 77.4%. For the same compound, the selectivity ratio in data set [2] is 10. In addition, the EC50 in data set [3] worked out at 5.6 µM. For the same compound, in data set [7], the inhibition at 10 µM was found to be 75.5%.

As for `CN(C)CCN(C)c1ccc(C#N)c(CN2CCN(C3CCc4ccccc4C3)CC2)c1` (stereo not given), the viability at 10 µM in [6] came out at 67.8%. Further, in [7], the inhibition at 10 µM came to 81.8%.

As to `N#Cc1ccc(N2CCNCC2)cc1CN1CCN(Cc2ccc(C(F)(F)F)cc2)CC1`, in data set [6], the viability at 10 µM worked out at 89%. The inhibition at 10 µM in data set [7] is 0.5%.

On to `N#Cc1ccccc1CN1CCN(Cc2ccccc2C#N)CC1`, for which the viability at 10 µM in [6] came out at 93.8%. Moreover, the inhibition at 10 µM in [7] was determined as 34.7%.

In the case of `CC(=O)N1CCN(c2ccc(C#N)c(CN3CCN(Cc4ccc(C(F)(F)F)cc4)CC3)c2)CC1`, the viability at 10 µM in [6] worked out at 89.1%. For the same compound, the inhibition at 10 µM in data set [7] came out at 15.1%.

With `CC(c1ccccc1)N1CCN(Cc2cc(N(C)CCN(C)C)ccc2C#N)CC1` (stereo not given), the viability at 10 µM in data set [6] stood at 64.7%. Further, the inhibition at 10 µM in [7] is 43%.

For `CN(C)CCN(C)c1ccc(C#N)c(CN2CCN(Cc3ccccc3Cl)CC2)c1`, in data set [1], the CC50 is > 100 µM. Also, in [6], the viability at 10 µM came out at 86.1%. Moreover, the selectivity ratio in data set [2] was > 20. Also, the EC50 in data set [3] was 5.1 µM. Besides, the inhibition result in [10] and in [11] was “Dose-dependent effect” each time. Further, in data set [7], the inhibition at 10 µM came to 70.4%.

On to `CN(CCc1ccccc1)c1ccc(C#N)c(CN2CCN(Cc3ccc(C(F)(F)F)cc3)CC2)c1`, for which the viability at 10 µM in data set [6] stood at 73.6%. For the same compound, the inhibition at 10 µM in data set [7] amounted to 35.1%.

For `CN1CCCN(c2ccc(C#N)c(CN3CCN(Cc4ccc(C(F)(F)F)cc4)CC3)c2)CC1`, the viability at 10 µM in data set [6] is 81.3%. In data set [7], the inhibition at 10 µM came out at 47.5%.

Regarding `CN1CCCN(c2ccc(C#N)c(CN3CCN(Cc4ccccc4)CC3)c2)CC1`, in data set [1], the CC50 was > 100 µM. The viability at 10 µM in data set [6] came to 93.6%. Also, the selectivity ratio in [2] is > 19. The EC50 in data set [3] amounted to 5.3 µM. For the same compound, the inhibition at 10 µM in data set [7] came out at 84.3%.

On to `CN1CCCN(c2ccc(C#N)c(CN3CCN(Cc4ccc(F)cc4)CC3)c2)CC1`, for which the viability at 10 µM in [6] came out at 79.3%. Besides, in data set [7], the inhibition at 10 µM came out at 55.1%.

In the case of `CN(C)CCOc1ccc(C#N)c(CN2CCN(Cc3ccc(C(F)(F)F)cc3)CC2)c1`, in data set [6], the viability at 10 µM worked out at 80.1%. For the same compound, the inhibition at 10 µM in data set [7] stood at 32.8%.

As for `N#Cc1ccc(NCCCn2ccnc2)cc1CN1CCN(Cc2ccc(C(F)(F)F)cc2)CC1`, the CC50 in [1] was 23.7 µM. Moreover, in [6], the viability at 10 µM amounted to 70%. For the same compound, the selectivity ratio in [2] was found to be 5. Also, the inhibition entry in [12] and in data set [13] was “Active” throughout. Besides, the EC50 in data set [3] turned out to be 4.9 µM. Besides, the inhibition at 10 µM in [7] was found to be 66.5%.

For `CN(C)CCN(C)c1ccc(C#N)c(CN2CCN(Cc3ccc(Cl)cc3)CC2)c1`, the viability at 10 µM in data set [6] amounted to 82.1%. In addition, the inhibition at 10 µM in data set [7] stood at 50.9%.

Take `N#Cc1ccc(NCCCn2ccnc2)cc1CN1CCN(Cc2ccc(F)cc2)CC1`: the viability at 10 µM in data set [6] stood at 96.5%. For the same compound, in data set [7], the inhibition at 10 µM was 58.3%.

As for `CC(c1ccccc1)N1CCN(Cc2cc(N3CCCN(C)CC3)ccc2C#N)CC1` (stereo not given), in [6], the viability at 10 µM was found to be 55.1%. In [7], the inhibition at 10 µM was 26.7%.

As to `CN1CCN(c2ccc(C#N)c(CN3CCN(Cc4ccc(C(F)(F)F)cc4)CC3)c2)CC1`, the viability at 10 µM in data set [6] was 84.5%. Moreover, in [7], the inhibition at 10 µM was 0.3%.

The term CC50 denotes the concentration giving 50% cytotoxicity. The EC50 is the concentration giving half of the maximal effect. Broadly, the inhibition is the share of the control response that was lost under treatment.
